# Results as given in paper PMC12086673, “Selective inhibition of NikA mediated Ni(II) import in E. coli by the Indium(III)-EDTA complex” (Metallomics: Integrated Biometal Science, 2025).
# Molecular target: T1, NikA (Escherichia coli, UniProt P33590)
# T1 construct: wild type NikA, purified from periplasm (56 304 Da)
# Assay: isothermal titration calorimetry, one-site model
# Type: binding
# T1 sequence (P33590 23-524): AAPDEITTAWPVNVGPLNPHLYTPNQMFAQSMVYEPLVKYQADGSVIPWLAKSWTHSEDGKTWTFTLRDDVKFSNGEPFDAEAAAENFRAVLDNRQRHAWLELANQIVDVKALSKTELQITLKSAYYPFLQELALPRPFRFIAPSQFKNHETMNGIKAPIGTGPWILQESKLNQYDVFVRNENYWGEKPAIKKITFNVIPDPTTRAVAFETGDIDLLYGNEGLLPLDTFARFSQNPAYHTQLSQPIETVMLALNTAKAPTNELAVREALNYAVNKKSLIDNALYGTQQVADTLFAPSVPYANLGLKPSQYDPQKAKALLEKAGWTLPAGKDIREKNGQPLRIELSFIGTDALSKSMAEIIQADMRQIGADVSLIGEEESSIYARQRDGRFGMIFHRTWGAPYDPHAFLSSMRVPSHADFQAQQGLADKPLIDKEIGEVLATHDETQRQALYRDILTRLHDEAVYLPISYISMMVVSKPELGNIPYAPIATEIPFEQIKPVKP
smiles,measurement,value
O=C([O-])CN(CCN(CC(=O)[O-])CC(=O)O)CC(=O)[O-].[Fe+3] [Fe(III)-EDTA],Kd,7.4 ± 0.7 µM
O=C([O-])CN(CCN(CC(=O)[O-])CC(=O)O)CC(=O)[O-].[In+3] [In(III)-EDTA],Kd,17.3 ± 3 µM
